Common to all, as to type: functional
Experiment [1] has as its target T1, Replicative DNA helicase DnaB (Mycobacterium tuberculosis, UniProt P9WMR3).
T1 sequence (P9WMR3 whole entry): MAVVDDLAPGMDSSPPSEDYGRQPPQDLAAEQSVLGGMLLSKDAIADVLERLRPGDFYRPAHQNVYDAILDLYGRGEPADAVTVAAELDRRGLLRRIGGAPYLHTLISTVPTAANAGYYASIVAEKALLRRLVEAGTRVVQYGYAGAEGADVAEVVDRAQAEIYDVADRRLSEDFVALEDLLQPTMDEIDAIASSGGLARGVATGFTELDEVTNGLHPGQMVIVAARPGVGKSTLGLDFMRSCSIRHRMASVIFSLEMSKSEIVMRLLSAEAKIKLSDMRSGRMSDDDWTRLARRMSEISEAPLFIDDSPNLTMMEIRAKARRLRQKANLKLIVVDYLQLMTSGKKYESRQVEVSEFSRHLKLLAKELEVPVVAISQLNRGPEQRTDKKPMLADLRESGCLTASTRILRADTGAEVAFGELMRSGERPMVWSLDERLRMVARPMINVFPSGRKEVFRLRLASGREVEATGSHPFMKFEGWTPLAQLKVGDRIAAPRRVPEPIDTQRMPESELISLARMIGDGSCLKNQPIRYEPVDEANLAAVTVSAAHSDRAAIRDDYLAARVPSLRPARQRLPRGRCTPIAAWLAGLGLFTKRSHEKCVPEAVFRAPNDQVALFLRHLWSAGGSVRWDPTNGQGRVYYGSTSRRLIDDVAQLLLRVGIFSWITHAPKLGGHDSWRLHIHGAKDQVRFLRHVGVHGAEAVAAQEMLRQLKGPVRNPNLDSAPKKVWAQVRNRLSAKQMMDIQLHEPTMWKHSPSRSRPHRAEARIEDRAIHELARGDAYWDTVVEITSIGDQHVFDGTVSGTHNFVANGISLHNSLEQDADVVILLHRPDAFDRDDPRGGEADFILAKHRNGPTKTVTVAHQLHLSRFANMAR
Nature of the experiment: DnaB intein splicing inhibitors, dose response, biochemical, cell-free fluorescence (AID 449749).

Experiment [2] concerns the target T2, Apoptotic protease-activating factor 1 (Homo sapiens, UniProt O14727).
T2 sequence (O14727 whole entry): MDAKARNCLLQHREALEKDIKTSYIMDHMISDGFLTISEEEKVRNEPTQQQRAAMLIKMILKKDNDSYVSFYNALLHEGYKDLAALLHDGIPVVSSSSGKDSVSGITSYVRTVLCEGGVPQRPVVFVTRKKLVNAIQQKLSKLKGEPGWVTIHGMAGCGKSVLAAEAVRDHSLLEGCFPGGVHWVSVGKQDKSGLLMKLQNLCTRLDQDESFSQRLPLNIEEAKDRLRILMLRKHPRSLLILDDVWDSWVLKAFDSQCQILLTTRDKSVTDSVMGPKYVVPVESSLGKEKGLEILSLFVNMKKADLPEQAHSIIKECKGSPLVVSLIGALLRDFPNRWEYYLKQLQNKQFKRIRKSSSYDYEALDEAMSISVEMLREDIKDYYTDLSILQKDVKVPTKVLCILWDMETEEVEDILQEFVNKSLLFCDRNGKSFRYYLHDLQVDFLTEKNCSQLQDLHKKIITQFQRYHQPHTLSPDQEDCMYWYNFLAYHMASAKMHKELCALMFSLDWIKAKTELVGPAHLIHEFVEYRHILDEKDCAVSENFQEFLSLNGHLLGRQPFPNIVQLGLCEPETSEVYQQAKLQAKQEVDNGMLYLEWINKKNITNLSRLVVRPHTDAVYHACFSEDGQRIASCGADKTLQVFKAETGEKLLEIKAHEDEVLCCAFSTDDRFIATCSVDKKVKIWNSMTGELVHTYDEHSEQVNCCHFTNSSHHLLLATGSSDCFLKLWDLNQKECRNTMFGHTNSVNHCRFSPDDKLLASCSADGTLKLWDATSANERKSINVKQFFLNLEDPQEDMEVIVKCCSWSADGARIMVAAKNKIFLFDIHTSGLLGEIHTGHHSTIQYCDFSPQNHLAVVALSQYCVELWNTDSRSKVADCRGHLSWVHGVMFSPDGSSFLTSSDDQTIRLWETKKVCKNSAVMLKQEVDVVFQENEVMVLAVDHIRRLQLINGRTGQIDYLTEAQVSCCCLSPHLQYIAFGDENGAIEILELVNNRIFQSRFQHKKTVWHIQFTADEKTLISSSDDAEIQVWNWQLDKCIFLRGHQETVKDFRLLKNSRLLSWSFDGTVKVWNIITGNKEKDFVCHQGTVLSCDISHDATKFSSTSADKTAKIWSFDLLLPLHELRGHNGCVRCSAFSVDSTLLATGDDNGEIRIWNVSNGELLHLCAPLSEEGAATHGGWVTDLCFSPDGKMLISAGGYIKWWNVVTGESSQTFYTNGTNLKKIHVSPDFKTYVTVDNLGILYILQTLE

For experiment [3], the target named is T3, Protein RecA (Mycobacterium tuberculosis, UniProt P9WHJ3).
T3 sequence (P9WHJ3 whole entry): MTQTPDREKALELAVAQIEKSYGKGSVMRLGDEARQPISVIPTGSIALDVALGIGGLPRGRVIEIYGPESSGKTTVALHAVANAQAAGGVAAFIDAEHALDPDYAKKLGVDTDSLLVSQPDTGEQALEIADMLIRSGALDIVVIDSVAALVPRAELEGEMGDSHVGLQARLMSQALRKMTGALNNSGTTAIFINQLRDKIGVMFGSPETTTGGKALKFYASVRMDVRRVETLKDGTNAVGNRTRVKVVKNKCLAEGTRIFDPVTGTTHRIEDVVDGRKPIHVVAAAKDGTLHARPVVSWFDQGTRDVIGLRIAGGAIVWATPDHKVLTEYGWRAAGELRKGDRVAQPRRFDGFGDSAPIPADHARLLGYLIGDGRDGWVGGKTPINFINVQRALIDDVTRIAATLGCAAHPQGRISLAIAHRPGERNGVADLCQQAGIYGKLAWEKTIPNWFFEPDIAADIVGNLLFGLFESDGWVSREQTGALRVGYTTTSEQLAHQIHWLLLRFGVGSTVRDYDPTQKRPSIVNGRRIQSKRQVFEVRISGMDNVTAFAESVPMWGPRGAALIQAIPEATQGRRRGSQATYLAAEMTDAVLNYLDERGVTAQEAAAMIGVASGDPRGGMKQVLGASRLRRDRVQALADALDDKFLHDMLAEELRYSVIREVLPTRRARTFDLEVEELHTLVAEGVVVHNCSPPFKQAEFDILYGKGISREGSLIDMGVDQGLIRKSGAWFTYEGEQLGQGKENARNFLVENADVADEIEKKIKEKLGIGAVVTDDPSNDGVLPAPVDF
In words: Fluorescence Cell-Free Homogeneous Dose Retest to Identify Inhibitors of RecA-Intein Splicing Activity. [Related pubchem assays (depositor defined):AID2097, AID2223, AID489010, AID492950].

The target in experiment [4] is Genome polyprotein (dengue virus type 2, UniProt P29990). Nature of the experiment: flavivirus cap methylation enzyme inhibition – biochemical, confirmation dose response, primary screen (AID 588689).
Genome polyprotein, sequence (P29990 2492-3391 limits assumed): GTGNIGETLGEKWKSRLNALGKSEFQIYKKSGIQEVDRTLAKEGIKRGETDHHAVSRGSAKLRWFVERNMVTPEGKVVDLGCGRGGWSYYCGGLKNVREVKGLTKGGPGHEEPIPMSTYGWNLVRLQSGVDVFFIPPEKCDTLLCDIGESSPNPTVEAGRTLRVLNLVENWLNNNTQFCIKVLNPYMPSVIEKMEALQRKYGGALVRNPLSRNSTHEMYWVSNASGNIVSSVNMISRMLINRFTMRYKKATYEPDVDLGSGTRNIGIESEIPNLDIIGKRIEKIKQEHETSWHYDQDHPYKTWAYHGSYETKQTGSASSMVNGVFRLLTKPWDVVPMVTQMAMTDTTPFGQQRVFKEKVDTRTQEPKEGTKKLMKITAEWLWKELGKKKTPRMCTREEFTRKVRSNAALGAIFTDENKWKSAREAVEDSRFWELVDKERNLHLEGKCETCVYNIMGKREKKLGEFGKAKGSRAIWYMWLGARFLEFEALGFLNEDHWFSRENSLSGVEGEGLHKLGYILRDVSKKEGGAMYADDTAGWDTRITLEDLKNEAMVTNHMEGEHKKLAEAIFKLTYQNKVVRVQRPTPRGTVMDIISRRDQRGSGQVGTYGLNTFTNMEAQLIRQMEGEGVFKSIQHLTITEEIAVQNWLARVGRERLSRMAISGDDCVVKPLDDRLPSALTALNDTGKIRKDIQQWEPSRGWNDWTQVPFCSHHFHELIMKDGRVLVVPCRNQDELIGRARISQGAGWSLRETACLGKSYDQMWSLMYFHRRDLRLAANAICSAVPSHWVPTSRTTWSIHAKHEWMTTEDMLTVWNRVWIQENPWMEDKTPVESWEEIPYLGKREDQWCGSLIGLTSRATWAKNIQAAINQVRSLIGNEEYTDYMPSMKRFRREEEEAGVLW

Activity calls are given as the source filed them. Where only a bound is given, the exact number is not on record here.

Take `COC(CNC(=O)c1ccc2c3c(onc13)-c1ccccc1C2=O)OC`: the AC50 in experiment [1] is 3.06 µM (active). Further, the IC50 in experiment [2] is 25.2 µM (active); in experiment [4], 4.67 µM (active). Also, the EC50 in experiment [3] is 5.99 µM (active).
`COc1ccc(OC)c(Nc2cc3ccccc3c(O)n2)c1`: the AC50 in experiment [1] was > 120 µM (inconclusive). The IC50 in experiment [2] is 2.5 µM (active). Also, the EC50 in experiment [3] is 1.34 µM (active).
With `O=C(O)c1ccc(NC2=C/C(=N/S(=O)(=O)c3ccccc3)c3ccccc3C2=O)cc1`, the IC50 was 3.15 µM (active) in experiment [2] and 17.1 µM (active) in experiment [4].
Consider `Nc1ccc2c(c1)C(=O)C(=O)c1ccccc1-2`, for which the AC50 in experiment [1] was 5.32 µM (active). Also, the IC50 in experiment [2] is 0.768 µM (active). In addition, the EC50 in experiment [3] was 6.36 µM (active).
Take `Cc1ccc2nc(/C(C#N)=C\c3ccc([N+](=O)[O-])o3)[nH]c2c1`: the EC50 in experiment [3] is 0.454 µM (active).
As to `COc1cc(-c2ccc(Nc3ccccc3C(=O)O)c(OC)c2)ccc1Nc1ccccc1C(=O)O`, the IC50 in experiment [2] was 26.7 µM (active); in experiment [4], 18.8 µM (active).

For the origin of these results see ChEMBL document CHEMBL1201862, “PubChem BioAssay data set” (2004).
